Source: patent US8512695B2 (priority 2008, dated 2013)
Where two headings read alike, the source gives them in different places.

What was measured:
adipocytes of fat grafts = assay: Apoptosis quantification in explanted fat grafts (Mito-PT / Apo-One fluorescent labels, plate reader); format: in vivo; conditions: for apoptosis level (words): early engraftment period, first ten days
Protocol: Apoptosis Identification. Immunochemistry apoptosis specific fluorescent labels FLIVO™ and MT Mito™ were used to identify apoptosis in adipocytes. Fat grafts were explanted, treated with Blendzyme (Roche Applied Science Liberase Blendzyme 3) at 38° C. for 20 minutes, and passed through a 100 micron cell strainer (to remove extra-cellular stromal elements left behind after digestion). These cells were then incubated for one hour at 38° C., and washed once following labeling. Afterwards these cells were placed into 96 well black plates, and read on a plate reader (Molecular Devices, SpectraMax M2) at their dye-specific emission and excitation wavelengths (FLIVO-red ex 565/em>590, MITO-PT ex 488/em green 530, red 590).
Fat Processing. Lipoaspirate was taken directly from the operating room. It was separated into 30 cc aliquots, and washed once with an equal volume of normal saline to remove blood and cellular debris. Afterwards, the tubes were centrifuged at 200G and the middle layer was separated and treated with various agents. These agents were treated in 30 cc washes, with 30 cc of fat for 30 minutes at 37° C. This incubation was chosen to minimize ischemic time while allowing for sufficient mixing with treatment agents. Following incubation and washing, the fat was again centrifuged at 200G. The middle fat layer was again separated and placed in 1.0 cc, 1.0 g aliquots for injection into the flanks of nude mice. This was performed under IRB approval for use of de-identified discarded tissue. Of note, the harvesting cannulas and harvesting pressures varied case by case and surgeon by surgeon. Fat was engrafted into animals within two hours of collection from the operating room in order to minimize warm ischemia time.
Experimental Model. Nude mice were implanted with 1.0 cc/1.0 g (+/−0.01 gm) fat grafts in a single lobule. These mice were injected with a 14 gauge angio-catheter to simulate a clinically relevant 1 cc injection. Two lobules were implanted into bilateral flanks of each nude mouse used in the study. The 14 gauge angio-catheter was chosen to minimize fat graft trauma during injection. Many clinicians use 16 and 14 gauge catheters currently for fat grafting, thus this size catheter was used to approximate clinical practice.
Initially, the lobules were explanted daily and measured for weight and apoptotic activity. After early curves were generated, lobules were explanted on days 3, 6, and 9, for the primary measurement of apoptosis levels. Additionally these samples were weighed, sent for histology, and measured for DNA content. Endpoints in the first ten days were compared to endpoints at six weeks to determine whether graft performance can be accurately predicted by early apoptosis and cell death.
Each experiment consisted of an early group and a late group of mice. Each group was injected with the same fat from a single patient on a single day. For the early time points two animals were euthanized on each sampling day for each group (n=4 lobules per each early time point). Additionally, animals from these same groups were then euthanized at six weeks for examination of late endpoints (8 animals generating 16 lobules were used for each group of late time points). Once an animal was euthanized, both lobules were collected analyzed, and the animal was removed from the study.
Apoptosis Quantification. Initially, lobules were explanted daily and measured for levels of apoptosis using Mito-PT. After daily testing, it was noted that peak levels of apoptosis occurred between days 5-7, and then trended back down. These values fell approximately in a bell shaped curve. Once this curve was determined, subsequent samples were tested on days 0, 3, 6, and 9, for a sampling of early apoptosis (see FIG. 7).

fat grafts [1] = assay: Weight / reabsorption by weight of 1.0 cc/1.0 g fat grafts; format: in vivo, nude mice
Protocol: (§1) Fat Processing. Lipoaspirate was taken directly from the operating room. It was separated into 30 cc aliquots, and washed once with an equal volume of normal saline to remove blood and cellular debris. Afterwards, the tubes were centrifuged at 200G and the middle layer was separated and treated with various agents. These agents were treated in 30 cc washes, with 30 cc of fat for 30 minutes at 37° C. This incubation was chosen to minimize ischemic time while allowing for sufficient mixing with treatment agents. Following incubation and washing, the fat was again centrifuged at 200G. The middle fat layer was again separated and placed in 1.0 cc, 1.0 g aliquots for injection into the flanks of nude mice. […] Fat was engrafted into animals within two hours of collection from the operating room in order to minimize warm ischemia time.
Each experiment consisted of an early group and a late group of mice. […] For the early time points two animals were euthanized on each sampling day for each group (n=4 lobules per each early time point). Additionally, animals from these same groups were then euthanized at six weeks for examination of late endpoints (8 animals generating 16 lobules were used for each group of late time points). Once an animal was euthanized, both lobules were collected analyzed, and the animal was removed from the study.

fat grafts [2] = format: in vivo
Protocol: as §1
Experimental Model. Nude mice were implanted with 1.0 cc/1.0 g (+/−0.01 gm) fat grafts in a single lobule. […]
Initially, the lobules were explanted daily and measured for weight and apoptotic activity. […] Additionally these samples were weighed, sent for histology, and measured for DNA content. […]
Each experiment consisted of an early group and a late group of mice. […] Once an animal was euthanized, both lobules were collected analyzed, and the animal was removed from the study.

[3] = Day 3, comparison experiments of FIG. 8
[4] = Day 6, comparison experiments of FIG. 8
[5] = agents tested for potential additive effects with P188, saline in this group 0.74 g

O=C(O)CCCC[C@@H]1CCSS1 (racemic) [lipoic acid]
apoptosis level (words) (adipocytes of fat grafts): decreased apoptosis during the engraftment period when compared to saline treated controls | weight at six weeks (fat grafts [1]; 1.0 cc/1.0 g graft implanted, six weeks): 0.65 ± 0.09 g | reabsorption by weight (fat grafts [1]; six weeks): statistically significant differences in reabsorption

CCCCCCCCCCCCCCCC[N+](C)(C)C.[Cl-] [CTA, cetyltrimethylammonium chloride]
apoptosis level (adipocytes of fat grafts; [3]): 35,338 RFUs | apoptosis level (adipocytes of fat grafts; [4]): 35,338 RFUs | apoptosis level (words) (adipocytes of fat grafts): higher levels of apoptosis than normal saline controls at earlier time points

CCCCCCCCCCCCCCCC[N+](C)(C)C.[Br-] [HCTA, Hexadecyltrimethylammonium bromide]
apoptosis level (adipocytes of fat grafts; [3]): 31,076 RFUs | apoptosis level (adipocytes of fat grafts; [4]): 41,037 RFUs | apoptosis level (words) (adipocytes of fat grafts): higher levels of apoptosis than normal saline controls at earlier time points

CC(C)CCC[C@@H](C)[C@H]1CC[C@H]2[C@@H]3CC=C4C[C@@H](O)CC[C@]4(C)[C@H]3CC[C@]12C [cholesterol]
overall effect on / toxicity to fat grafts (fat grafts [2]; conclusion over early and late endpoints): toxic | weight at six weeks (fat grafts [1]; [5]): 0.73 ± 0.04 g

Oc1ccc(C=Cc2cc(O)cc(O)c2)cc1 [resveratrol]
overall effect on / toxicity to fat grafts (fat grafts [2]; mouse, in vivo): toxic | weight at six weeks (fat grafts [1]; [5]): 0.73 ± 0.03 g

O=C1O[C@H]([C@@H](O)CO)C(O)=C1O [vitamin C, ascorbic acid]
apoptosis level (words) (adipocytes of fat grafts): high levels of apoptosis

Phosphatidylcholine [PC]
apoptosis level (adipocytes of fat grafts; [3]): 52,000 RFUs | apoptosis level (words) (adipocytes of fat grafts; listed as Phosphatidylcholine): elevated levels of apoptosis compared to P188 | apoptosis level (words) (adipocytes of fat grafts; listed as phosphatidylcholine): some protective effect, but not to the same magnitude as P188
